Test results published in PubChem BioAssay (NCI).
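GI50: concentration for 50% inhibition of growth. TGI is the concentration that stops growth completely.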

Tests used:
Test in all cases: NCI-60 cell line screen, 384-well format
[1] = tested on: 786-0 renal
[2] = tested on: A498 renal
[3] = tested on: A549 NSCLC
[4] = tested on: ACHN renal
[5] = tested on: BT-549 breast
[6] = tested on: CAKI-1 renal
[7] = tested on: CCRF-CEM leukemia
[8] = tested on: COLO 205 colon
[9] = tested on: DU-145 prostate
[10] = tested on: EKVX NSCLC
[11] = tested on: HCC-2998 colon
[12] = tested on: HCT-15 colon
[13] = tested on: HL-60(TB) leukemia
[14] = tested on: HOP-62 NSCLC
[15] = tested on: HOP-92 NSCLC
[16] = tested on: HS 578T breast
[17] = tested on: HT29 colon
[18] = tested on: IGROV1 ovarian
[19] = tested on: K-562 leukemia
[20] = tested on: KM12 colon
[21] = tested on: LOX IMVI melanoma
[22] = tested on: M14 melanoma
[23] = tested on: MALME-3M melanoma
[24] = tested on: MCF7 breast
[25] = tested on: MDA-MB-231 breast
[26] = tested on: MDA-MB-435 melanoma
[27] = tested on: MDA-MB-468 breast
[28] = tested on: MOLT-4 leukemia
[29] = tested on: NCI-H226 lung
[30] = tested on: NCI-H23 lung
[31] = tested on: NCI-H322M lung
[32] = tested on: NCI-H460 NSCLC
[33] = tested on: NCI-H522 lung
[34] = tested on: NCI/ADR-RES ovarian
[35] = tested on: OVCAR-3 ovarian
[36] = tested on: OVCAR-4 ovarian
[37] = tested on: OVCAR-5 ovarian
[38] = tested on: OVCAR-8 ovarian
[39] = tested on: PC-3 prostate
[40] = tested on: RPMI-8226 leukemia
[41] = tested on: RXF 393 renal
[42] = tested on: SF-268 CNS
[43] = tested on: SF-295 CNS
[44] = tested on: SF-539 CNS
[45] = tested on: SK-MEL-28 melanoma
[46] = tested on: SK-MEL-5 melanoma
[47] = tested on: SK-OV-3 ovarian
[48] = tested on: SN12C renal
[49] = tested on: SNB-19 CNS
[50] = tested on: SNB-75 CNS
[51] = tested on: SR leukemia
[52] = tested on: SW-620 colon
[53] = tested on: T-47D breast
[54] = tested on: TK-10 renal
[55] = tested on: U251 glioblastoma
[56] = tested on: UACC-257 melanoma
[57] = tested on: UACC-62 melanoma
[58] = tested on: UO-31 renal

## CNc1nc(-c2ccc3c(N)n[nH]c3c2)cc(N2C[C@@H](C(=O)NC3CCCCC3)CC[C@H]2C)n1
[1]
  GI50: 3.25 µM
  TGI: 13.8 µM
[2]
  GI50: 0.666 µM
  TGI: 7.16 µM
[3]
  GI50: 3.78 µM
  TGI: 16.2 µM
[4]
  GI50: 4.99 µM
  TGI: 20.8 µM
[5]
  GI50: 1.72 µM
  TGI: 13.9 µM
[6]
  GI50: 1.61 µM
  TGI: 15.2 µM
[7]
  GI50: 1.04 µM
  TGI: 3.12 µM
[8]
  GI50: 1.56 µM
  TGI: 11 µM
[9]
  GI50: 10.3 µM
  TGI: 22.1 µM
[10]
  GI50: 2.17 µM
  TGI: 15 µM
[11]
  GI50: 2.73 µM
  TGI: 13.9 µM
[12]
  GI50: 2.81 µM
  TGI: 13.9 µM
[13]
  GI50: 1.26 µM
  TGI: 2.85 µM
[14]
  GI50: 7.05 µM
  TGI: 20.3 µM
[15]
  GI50: 0.99 µM
  TGI: 6.78 µM
[16]
  GI50: 1.33 µM
  TGI: 6.42 µM
[17]
  GI50: 3.45 µM
  TGI: 18 µM
[18]
  GI50: 2.66 µM
  TGI: 10.1 µM
[19]
  GI50: 4.88 µM
  TGI: 17.4 µM
[20]
  GI50: 10.1 µM
  TGI: 21.8 µM
[21]
  GI50: 4.8 µM
  TGI: 17.4 µM
[22]
  GI50: 1.7 µM
  TGI: 17.8 µM
[23]
  GI50: 0.157 µM
  TGI: 2.01 µM
[24]
  GI50: 0.417 µM
  TGI: 2.95 µM
[25]
  GI50: 1.91 µM
  TGI: 16.7 µM
[26]
  GI50: 3.29 µM
  TGI: 16.9 µM
[27]
  GI50: 0.213 µM
  TGI: 0.997 µM
[28]
  GI50: 0.545 µM
  TGI: 1.9 µM
[29]
  GI50: 2.15 µM
  TGI: 14 µM
[30]
  GI50: 1.86 µM
  TGI: 13.2 µM
[31]
  GI50: 7.92 µM
  TGI: 20.7 µM
[32]
  GI50: 1.6 µM
  TGI: 13.9 µM
[33]
  GI50: 6.52 µM
  TGI: 19.9 µM
[34]
  GI50: 13.5 µM
  TGI: 26.4 µM
[35]
  GI50: 3.45 µM
  TGI: 16.7 µM
[36]
  GI50: 2.58 µM
  TGI: 13.3 µM
[37]
  GI50: 1.64 µM
  TGI: 6.52 µM
[38]
  GI50: 9.7 µM
  TGI: 21.6 µM
[39]
  GI50: 0.877 µM
  TGI: 14.7 µM
[40]
  GI50: 0.471 µM
  TGI: 3.49 µM
[41]
  GI50: 2.97 µM
  TGI: 13 µM
[42]
  GI50: 5.21 µM
  TGI: 19.3 µM
[43]
  GI50: 4.81 µM
  TGI: 18.3 µM
[44]
  GI50: 3.52 µM
  TGI: 15.8 µM
[45]
  GI50: 1.54 µM
  TGI: 12.5 µM
[46]
  GI50: 0.798 µM
  TGI: 2.81 µM
[47]
  GI50: 1.68 µM
  TGI: 12.1 µM
[48]
  GI50: 1.9 µM
  TGI: 15.5 µM
[49]
  GI50: 7.1 µM
  TGI: 20 µM
[50]
  GI50: 1.19 µM
  TGI: 13.4 µM
[51]
  GI50: 0.475 µM
  TGI: 8.48 µM
[52]
  GI50: 11.6 µM
  TGI: 24 µM
[53]
  GI50: 0.0787 µM
  TGI: 1.58 µM
[54]
  GI50: 3.15 µM
  TGI: 16.4 µM
[55]
  GI50: 10.4 µM
  TGI: 22.4 µM
[56]
  GI50: 1.62 µM
  TGI: 10.5 µM
[57]
  GI50: 1.93 µM
  TGI: 13.5 µM
[58]
  GI50: 5.39 µM
  TGI: 19.4 µM
